# In publication PMC4710095 (Journal of medicinal chemistry, 2012):
# Experiments:
# TcFPPS = TcFPPS enzymatic activity; IC50 were calculated before; cited from earlier work
# [1] = biological target: T1, TcFPPS (Trypanosoma cruzi farnesyl diphosphate synthase) (Trypanosoma cruzi, UniProt Q8WS26); test: Isothermal titration calorimetry of bisphosphonate binding to TcFPPS; details: ITC, 28 °C; for ΔG / ΔH / ΔS: single binding site per monomer
# T1 sequence (Q8WS26 64-425): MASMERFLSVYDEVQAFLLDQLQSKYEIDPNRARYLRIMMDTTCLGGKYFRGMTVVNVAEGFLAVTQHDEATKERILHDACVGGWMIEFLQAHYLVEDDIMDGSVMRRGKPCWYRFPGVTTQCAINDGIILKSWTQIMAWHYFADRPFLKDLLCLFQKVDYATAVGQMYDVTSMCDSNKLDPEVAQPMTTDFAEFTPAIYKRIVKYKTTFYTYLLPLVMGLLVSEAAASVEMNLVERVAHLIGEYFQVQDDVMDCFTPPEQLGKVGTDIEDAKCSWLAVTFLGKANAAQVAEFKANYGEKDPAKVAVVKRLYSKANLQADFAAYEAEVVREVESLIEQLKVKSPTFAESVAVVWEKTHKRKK
# T. cruzi = details: in vivo assays; cited from earlier work
Structure (SMILES),IC50 (TcFPPS) [nM],ΔG [1] [kcal/mol],ΔH [1] [kcal/mol],ΔS [1] [cal/mol/K],"unfavorable binding enthalpy, excess over the other inhibitors ([1]; compared with the other n-alkyl inhibitors) [kcal/mol]","ΔH, 2-site model, first value ([1]; values calculated using 2-site model (two different sites per dimer), first site) [kcal/mol]","ΔH, 2-site model, second value ([1]; values calculated using 2-site model (two different sites per dimer), second site) [kcal/mol]",survival of T. cruzi-infected mice (T. cruzi)
"CCCNCC(P(=O)(O)O)P(=O)(O)O [Compound 10, [2-(n-propylamino)ethane-1,1-diyl]bisphosphonic acid]",38,-10.43,6.35 ± 0.07,56.1,,,,
"CCCCCNCC(P(=O)(O)O)P(=O)(O)O [Compound 11, [2-(n-pentylamino)ethane-1,1-diyl]bisphosphonic acid]",1840,-8.15,5.22 ± 0.11,44.7,,,,
"CCCCCCNCC(P(=O)(O)O)P(=O)(O)O [Compound 12, [2-(n-hexylamino)ethane-1,1-diyl]bisphosphonic acid]",490,-8.72,7.87 ± 0.11,55.4,1.5 to 2.0,,,
"CCCCCCCNCC(P(=O)(O)O)P(=O)(O)O [Compound 13, [2-(n-heptylamino)ethane-1,1-diyl]bisphosphonic acid]",58,-9.88,5.65 ± 0.09,51.9,,6.39 ± 0.36,4.62 ± 0.44,
"O=P(O)(O)C(CNC1CCCCC1)P(=O)(O)O [Compound 14, [2-(cyclohexylamino)ethane-1,1-diyl]bisphosphonic acid]",13,,,,,,,
O=P(O)(O)C(O)(Cc1cccnc1)P(=O)(O)O [risedronate],,,,,,,,significantly increase survival
